Assay results from patent publication US8232407B2, “Nitrogenous heterocyclic compounds with insecticidal activity, and the preparation and use thereof” (East China University of Science and Technology, priority 2008, dated 2012).

Legend:
Format in all cases: in vivo
Settings in all cases: in vivo
[1] = system: Pseudaletia separate Walker; test: Insecticidal activities to armyworm, leaf dipping and feeding
Outline: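 Armyworms (10 per tumbler, 3 replicates) ate fresh maize leaves that had been immersed for 3 seconds in compound solutions of 1.57-500 ppm in acetone, or in aqueous acetone for controls. Kills were scored at 24 h, and mortality was calculated relative to survivors in the control group.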

Aphis craccivoral = test: Insecticidal activities to aphids, immersion method
Outline: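 Immersion assay: compound diluted from 10 g/L DMF stock to 500 ppm in 0.2 mL/L Triton X-100, sprout-feeding wingless adults dipped 5 s. Kept at 23° C, three repeats; 24 h mortality calculated relative to surviving Triton-treated controls.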

Plutella xylostella = test: Insecticidal activities to diamondback moth, feeding dipped leaves
Outline: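 Mortality was scored 24 h after larvae of Plutella xylostella (10 per treatment, 3 repeats) fed on cabbage leaves immersed 3 s in test solution and dried at room temperature. It was computed relative to survivors in a water-treated control.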

Nilaparvata lugens = test: Insecticidal activities to plant hopper, spraying method
Outline: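 Spray test: acetone solutions of 500 down to 0.79 ppm, 2 ml per tumbler holding 10 planthoppers introduced 6 h earlier, triplicate, aqueous acetone as control. Mortality at 24 h calculated from survivors relative to control.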

SMILES | Pseudaletia separate Walker Mortality (%) 500 ppm [1] [%] | Aphis craccivoral Mortality (%) 500 ppm (Aphis craccivoral) [%] | Plutella xylostella Mortality (%) 500 ppm (Plutella xylostella) [%] | Nilaparvata lugens Mortality (%) 500 ppm (Nilaparvata lugens) [%]
C[N+]1=C(C(=Cc2sc(Cl)cc2Cl)[N+](=O)[O-])N(Cc2ccc(Cl)nc2)CC1.[Cl-] [Compound 267] | 100 | 100 | 100 | 100
C[N+]1=C(C(=Cc2ccc(CO)o2)[N+](=O)[O-])N(Cc2ccc(Cl)nc2)CC1.[Cl-] [Compound 258] | 100 | 100 | 100 | 100
C[N+]1=C(C(=Cc2ccc(Br)o2)[N+](=O)[O-])N(Cc2cnc(Cl)s2)CC1.[Cl-] [Compound 279] | 100 | 100 | 100 | 100
O=[N+]([O-])C(=Cc1ccc(Cl)s1)C1=NCCN1Cc1cnc(Cl)s1 [Compound 86] | 100 | 100 | 100 | 100
O=[N+]([O-])C(=Cc1cc(Cl)cs1)C1=NCCN1Cc1ccc(Cl)nc1 [Compound 21] | 100 | 100 | 100 | 100
O=[N+]([O-])C(=Cc1cc(Br)co1)C1=NCCN1Cc1cnc(Cl)s1 [Compound 74] | 100 | 100 | 100 | 100
CC[N+]1=C(C(=Cc2ccc(Cl)o2)[N+](=O)[O-])N(Cc2ccc(Cl)nc2)CC1.[Cl-] [Compound 288] | 100 | 100 | 100 | 100
O=[N+]([O-])C(=Cc1cc(Cl)co1)C1=NCCN1Cc1ccccc1 [Compound 106] | 59 | 91 | 75 | 87
CC(c1ccc(Cl)nc1)N1CCN=C1C(=Cc1ccoc1)[N+](=O)[O-] (racemic) [Compound 123] | 100 | 100 | 100 | 100
N#CC(=Cc1ccc(CO)o1)C1=NCCN1Cc1ccc(Cl)nc1 [Compound 145] | 100 | 92 | 100 | 100
CC(=C(C1=NCCN1C(C)c1ccc(Cl)nc1)[N+](=O)[O-])c1cccs1 (racemic) [Compound 138] | 100 | 100 | 100 | 100
O=[N+]([O-])C(=Cc1ccc(Cl)nc1)C1=NCCN1Cc1ccc(Cl)nc1 [Compound 40] | 67 | 45 | 56 | 44
CC(=C(C1=NCCN1C(C)c1ccc(Cl)nc1)[N+](=O)[O-])c1ccsc1 (racemic) [Compound 139] | 95 | 93 | 100 | 100
O=[N+]([O-])C(=Cc1ccc([N+](=O)[O-])s1)C1=NCCCN1Cc1ccc(Cl)nc1 [Compound 63] | 100 | 98 | 100 | 100
O=[N+]([O-])C(=Cc1cc(Cl)cs1)C1=NCCCN1Cc1ccc(Cl)nc1 [Compound 66] | 87 | 56 | 100 | 87
O=[N+]([O-])C(=Cc1ccc([N+](=O)[O-])o1)C1=NCCCN1Cc1ccc(Cl)nc1 [Compound 48] | 100 | 100 | 100 | 100
CC[N+]1=C(C(=Cc2ccsc2)[N+](=O)[O-])N(Cc2ccc(Cl)nc2)CC1.[Cl-] [Compound 292] | 100 | 100 | 100 | 100
C[N+]1=C(C(=Cc2cc(Br)c(Br)o2)[N+](=O)[O-])N(Cc2ccc(Cl)nc2)CC1.[Cl-] [Compound 253] | 100 | 100 | 100 | 100
